The values below are quoted from earlier work in patent publication US20260283918A1, “AZELAIC ACID/BETAINE/PANTHENOL SELF-RECOGNITION DES SYSTEM AND PREPARATION METHOD” (Wuxi Zhiyan Biotechnology Co., LTD, priority 2023, published 2026).

The conditions of this series: water and oil.

As for `O=C(O)CCCCCCCC(=O)O` [azelaic acid], the “solubility of azelaic acid” value was “poor solubility in both water and oil”.
